{
  "source": "paper PMC8991199",
  "about": "“Promiscuity mapping of the S100 protein family using a high-throughput holdup assay” (Scientific Reports, 2022)",
  "assay": "solubility by light scattering",
  "conditions": "20 mM HEPES, 150 mM NaCl, 2 mM CaCl2, pH 7.5, 10 nM to 1 mM, triplicates",
  "procedure": "Foldamers were dissolved in a buffer consisting of 20 mM HEPES, 150 mM NaCl, 2 mM CaCl2, pH = 7.5 at 11 different concentrations from 10 nM to 1 mM. 100 μl samples in triplicates were pipetted into a 96-well ELISA plate and absorbance values were recorded by using FLUOstar OPTIMA plate reader at 650 nm wavelength.",
  "data": [
    {"smiles": "NC(=O)[C@H](CCCCNC(=O)c1ccc2c(c1)C1(OC2=O)c2ccc(O)cc2Oc2cc(O)ccc21)NC(=O)CNC(=O)[C@H]1CCCC[C@@H]1NC(=O)C[C@H](Cc1c[nH]c2ccccc12)NC(=O)[C@H]1CCCC[C@@H]1NC(=O)[C@H]1CCCC[C@@H]1NC(=O)C[C@H](Cc1c[nH]c2ccccc12)NC(=O)[C@H]1CCCC[C@@H]1N", "note": "[fWW]", "values": [
      {"measurement": "concentration above which light scattering is increased", "setting": "Fig. S2, absorbance at 650 nm", "value": "above 1 μM"},
      {"measurement": "concentration at which aggregation was observed", "setting": "light scattering on 600 nm (text; method: absorbance at 650 nm)", "value": 10, "unit": "µM"}
    ]}
  ]
}
